In BindingDB's records for doi:10.1038/350610a0 (University of Toronto, 1991):
Several values for one entry are separate records, joined by “and”; a condition that tells them apart may be missing. Equal entries are not always repeated.

Tests used:
D(4) dopamine receptor = target: T1, D(4) dopamine receptor (Rattus norvegicus, UniProt P30729)
T1 sequence (P30729 whole entry): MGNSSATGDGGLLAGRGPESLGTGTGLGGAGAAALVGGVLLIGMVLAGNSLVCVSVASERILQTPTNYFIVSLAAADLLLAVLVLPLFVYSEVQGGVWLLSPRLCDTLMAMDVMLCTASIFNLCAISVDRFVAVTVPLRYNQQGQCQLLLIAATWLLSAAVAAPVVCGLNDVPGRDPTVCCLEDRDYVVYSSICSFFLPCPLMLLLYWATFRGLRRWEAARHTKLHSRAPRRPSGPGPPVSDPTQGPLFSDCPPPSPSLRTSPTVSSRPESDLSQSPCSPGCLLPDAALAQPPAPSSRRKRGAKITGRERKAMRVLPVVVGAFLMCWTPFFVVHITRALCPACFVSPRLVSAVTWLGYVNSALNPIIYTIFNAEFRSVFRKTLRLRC

Dopamine receptor D4 = target: T2, Dopamine receptor D4 (Canis lupus familiaris, UniProt Q589Y6)
T2 sequence (Q589Y6 whole entry): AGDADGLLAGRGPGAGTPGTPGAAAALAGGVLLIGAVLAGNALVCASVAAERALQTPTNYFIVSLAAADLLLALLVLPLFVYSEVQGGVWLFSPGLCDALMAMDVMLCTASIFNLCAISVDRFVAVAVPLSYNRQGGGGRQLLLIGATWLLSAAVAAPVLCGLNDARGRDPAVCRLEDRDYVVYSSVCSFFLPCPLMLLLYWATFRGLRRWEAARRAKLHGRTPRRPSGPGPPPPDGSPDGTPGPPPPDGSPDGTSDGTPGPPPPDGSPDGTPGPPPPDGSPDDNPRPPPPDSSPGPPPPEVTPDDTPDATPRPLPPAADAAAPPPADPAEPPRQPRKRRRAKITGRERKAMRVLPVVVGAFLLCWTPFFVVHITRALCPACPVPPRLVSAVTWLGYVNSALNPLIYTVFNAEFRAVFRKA

D(2) dopamine receptor = D(2) dopamine receptor (Homo sapiens, UniProt P14416)
D(2) dopamine receptor, sequence (P14416 whole entry): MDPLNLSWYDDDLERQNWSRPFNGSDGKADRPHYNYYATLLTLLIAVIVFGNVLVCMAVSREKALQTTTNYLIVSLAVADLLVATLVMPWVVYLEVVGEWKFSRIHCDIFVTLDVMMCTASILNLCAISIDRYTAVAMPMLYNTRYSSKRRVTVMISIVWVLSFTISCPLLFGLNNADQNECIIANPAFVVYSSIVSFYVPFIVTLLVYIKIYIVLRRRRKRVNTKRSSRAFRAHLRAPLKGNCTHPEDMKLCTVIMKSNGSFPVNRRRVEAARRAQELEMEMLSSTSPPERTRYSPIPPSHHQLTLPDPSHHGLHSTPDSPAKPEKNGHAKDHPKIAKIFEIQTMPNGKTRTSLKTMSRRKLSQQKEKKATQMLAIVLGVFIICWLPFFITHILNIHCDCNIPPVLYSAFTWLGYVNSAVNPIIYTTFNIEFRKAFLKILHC

## Nc1nc2c(ncn2[C@@H]2O[C@H](COP(=O)(O)OP(=O)(O)OP(=O)(O)O)[C@@H](O)[C@H]2O)c(=O)[nH]1 [Dopamine+ (GTP+)]
D(4) dopamine receptor
  Ki: 450 nM

## NCCc1ccc(O)c(O)c1
Dopamine receptor D4
  Ki: 7.5 nM and 28 nM

## CN1CCN(CCCN2c3ccccc3Sc3ccc(S(=O)(=O)N(C)C)cc32)CC1 [NSC_92178]
D(4) dopamine receptor
  Ki: 53 nM

## CN1CCN(CCCN2c3ccccc3Sc3ccc(C(F)(F)F)cc32)CC1
Dopamine receptor D4
  Ki: 1.2 nM and 3 nM

## O=c1[nH]c2ccccc2n1C1CCN(CCCC(c2ccc(F)cc2)c2ccc(F)cc2)CC1 [1-(1-(4,4-bis(4-fluorophenyl)butyl)piperidin-4-yl)-1H-benzo[d]imidazol-2(3H)-one]
D(4) dopamine receptor
  Ki: 43 nM

## CN1CCN(C2=c3ccccc3=Nc3ccc(Cl)cc3N2)CC1 [6-chloro-10-(4-methylpiperazin-1-yl)-2,9-diazatricyclo[9.4.0.0^{3,8}]pentadeca-1,3(8),4,6,10,12,14-heptaene]
Dopamine receptor D4
  Ki: 9 nM

## CCN1CCC[C@H]1CNC(=O)c1c(O)c(Cl)cc(Cl)c1OC [3,5-Dichloro-N-(1-ethyl-pyrrolidin-2-ylmethyl)-2-hydroxy-6-methoxy-benzamide (raclopride)]
D(4) dopamine receptor
  Ki: 237 nM

## CC(C)C[C@H]1C(=O)N2CCC[C@H]2[C@]2(O)O[C@](NC(=O)[C@@H]3C=C4c5cccc6[nH]c(Br)c(c56)C[C@H]4N(C)C3)(C(C)C)C(=O)N12 [Bromocriptine+ (GTP+)]
D(4) dopamine receptor
  Ki: 340 nM
D(2) dopamine receptor
  Ki: 12.6 nM

## O=C(c1ccc(F)cc1)C1CCN(CCn2c(=O)[nH]c3ccccc3c2=O)CC1 [3-(2-{4-[(4-fluorophenyl)carbonyl]piperidin-1-yl}ethyl)-1,2,3,4-tetrahydroquinazoline-2,4-dione]
Dopamine receptor D4
  Ki: 192 nM and 148 nM

## CCCN1CCC[C@@H]2Cc3n[nH]cc3C[C@H]21 [NSC_54562]
Dopamine receptor D4
  Ki: 4.8 nM and 46 nM

## NCCc1c[nH]c2ccc(O)cc12 [[3H]-5-HT]
Dopamine receptor D4
  Ki: 4180 nM

## CN1CCc2cccc3c2[C@H]1Cc1ccc(O)c(O)c1-3 [APOKYN]
Dopamine receptor D4
  Ki: 2 nM and 4.1 nM

## NCC(O)c1ccc(O)c(O)c1 (stereo not drawn) [Noradrenaline,(+)]
Dopamine receptor D4
  Ki: 6000 nM and 1760 nM
